Source: ChEMBL document CHEMBL3244292, “Imidazo[4,5-f]quinolines. 2. A series of 9-(substituted amino)imidazo[4,5-f]quinolines as antitapeworm agents” (1977)
Activity calls are given as the source filed them. The rule behind the calls is not given here.

Assays:
Assay type in all cases: functional
Rodentolepis nana [1] = test: Anthelmintic activity against Hymenolepis nana infected in mouse assessed as reduction in worm burden at 50 mg/kg administered bid for 3 days relative to control; set-up: scale not given: the % may be the effect or the level left
Rodentolepis nana [2] = test: Anthelmintic activity against Hymenolepis nana infected in mouse assessed as reduction in worm burden at 100 mg/kg administered bid for 3 days relative to control; set-up: scale not given: the % may be the effect or the level left
Rodentolepis nana [3] = test: Anthelmintic activity against Hymenolepis nana infected in mouse assessed as reduction in worm burden at 25 mg/kg administered bid for 3 days relative to control
Rodentolepis nana [4] = test: Anthelmintic activity against Hymenolepis nana infected in mouse assessed as reduction in worm burden at 300 mg/kg administered bid for 3 days relative to control; set-up: scale not given: the % may be the effect or the level left

SMILES | Activity (Rodentolepis nana [1]) | Activity (Rodentolepis nana [2]) | Activity (Rodentolepis nana [3]) | Activity (Rodentolepis nana [4])
CCOc1ccc(Nc2cc(C)nc3ccc4nc[nH]c4c23)cc1Cl | 50% | 100% | inactive | –
Cc1cc(Nc2ccc(N3CCCC3)c(Cl)c2)c2c(ccc3nc[nH]c32)n1 | 46% | 100% | inactive | –
Cc1cc(Nc2ccc(OC(C)C)c(OC(C)C)c2)c2c(ccc3nc[nH]c32)n1 | 94% | 100% | inactive | –
Cc1cc(Nc2ccc(F)c(Cl)c2)c2c(ccc3nc[nH]c32)n1 | inactive | 82% | – | –
Cc1cc(Nc2ccc(/N=N\c3ccccc3)cc2)c2c(ccc3nc[nH]c32)n1 | – | inactive | – | 100%
CCc1ccc(Nc2cc(C)nc3ccc4nc[nH]c4c23)cc1Cl | 93% | 100% | inactive | –
CCOc1ccc(Nc2cc(C)nc3ccc4nc[nH]c4c23)cc1 | inactive | 100% | – | –
CCOc1cc(Nc2cc(C)nc3ccc4nc[nH]c4c23)c(OCC)cc1Cl | 100% | 100% | inactive | –
CSc1cccc(Nc2cc(C)nc3ccc4nc[nH]c4c23)c1 | inactive | 100% | – | –
CCCCOc1ccc(Nc2cc(C)nc3ccc4nc[nH]c4c23)cc1OCCCC | 95% | 100% | inactive | –
Cc1cc(Nc2ccc(N(C)C)c(Cl)c2)c2c(ccc3nc[nH]c32)n1 | inactive | 71% | – | –
COc1ccc(Nc2cc(C)nc3ccc4nc(C)[nH]c4c23)cc1 | – | inactive | – | 100%
Cc1cc(Nc2ccc3c(c2)OCO3)c2c(ccc3nc[nH]c32)n1 | – | inactive | – | 100%
Cc1ccc(Nc2cc(C)nc3ccc4nc[nH]c4c23)cc1 | – | inactive | – | 100%
CCCCCOc1ccc(Nc2cc(C)nc3ccc4nc[nH]c4c23)cc1OCCCCC | inactive | 63% | – | –
CCOc1cc(OCC)c(OCC)cc1Nc1cc(C)nc2ccc3nc[nH]c3c12 | 80% | 89% | inactive | –
Cc1cc(Nc2ccc(Cl)c(C(F)(F)F)c2)c2c(ccc3nc[nH]c32)n1 | 87% | 84% | inactive | –
CCc1cc(Nc2ccc(OC)cc2)c2c(ccc3nc[nH]c32)n1 | inactive | 46% | – | –
COc1ccccc1Nc1cc(C)nc2ccc3nc[nH]c3c12 | inactive | 66% | – | –
CCCCOc1ccc(Nc2cc(C)nc3ccc4[nH]cnc4c23)cc1 | – | inactive | – | 100%
Cc1cc(Nc2cccc(Nc3ccccc3)c2)c2c(ccc3nc[nH]c32)n1 | – | inactive | – | 81%
CCCCc1ccc(Nc2cc(C)nc3ccc4nc[nH]c4c23)cc1Cl | 100% | 100% | 65% | –
CCOc1ccc(Nc2cc(C)nc3ccc4nc[nH]c4c23)cc1OCC | 84% | 100% | inactive | –
CSc1ccc(Nc2cc(C)nc3ccc4nc[nH]c4c23)cc1 | 62% | 100% | – | –

SMILES | Activity (Rodentolepis nana [1]) | Activity (Rodentolepis nana [2]) | Activity (Rodentolepis nana [3]) | Activity (Rodentolepis nana [4])
Cc1cc(Nc2ccc(-c3ccccc3)cc2)c2c(ccc3nc[nH]c32)n1 | 94% | 100% | inactive | –
CCCCc1ccc(Nc2cc(-c3ccccc3)nc3ccc4nc[nH]c4c23)cc1 | – | inactive | – | 69%
Cc1cc(Nc2cccc(Nc3ccc(N4CCN(C)CC4)nc3)c2)c2c(ccc3nc[nH]c32)n1 | – | inactive | – | 64%
Cc1cc(Nc2ccc(OCc3ccccc3)cc2)c2c(ccc3nc[nH]c32)n1 | 64% | 81% | – | –
Cc1cc(Nc2ccc(N3CCCCC3)cc2)c2c(ccc3nc[nH]c32)n1 | 62% | 64% | inactive | –
Cc1cc(Nc2cccc(N(C)C)c2)c2c(ccc3nc[nH]c32)n1 | 87% | 100% | inactive | –
COc1cccc(Nc2cc(C)nc3ccc4[nH]cnc4c23)c1 | inactive | 73% | – | –
Cc1cc(Nc2ccc(I)cc2)c2c(ccc3nc[nH]c32)n1 | inactive | 84% | – | –
CCN(CC)c1ccc(Nc2cc(C)nc3ccc4nc[nH]c4c23)cc1 | inactive | 79% | – | –
Cc1cc(Nc2cccc(C(F)(F)F)c2)c2c(ccc3nc[nH]c32)n1 | – | inactive | – | 100%
COc1ccc(Nc2cc(-c3ccccc3)nc3ccc4nc[nH]c4c23)cc1 | inactive | 66% | – | –
COc1ccc(Nc2cc(C)nc3ccc4nc[nH]c4c23)cc1OC | inactive | 73% | – | –
Cc1cc(Nc2cccc(Nc3ccc(N4CCCCC4)nc3)c2)c2c(ccc3nc[nH]c32)n1 | – | inactive | – | 100%
COc1ccc(CNc2cccc(Nc3cc(C)nc4ccc5nc[nH]c5c34)c2)cc1 | – | inactive | – | 60%
Cc1cc(Nc2ccc(N(C)C)cc2)c2c(ccc3nc[nH]c32)n1 | inactive | 100% | – | –
Cc1cc(Nc2ccc(N3CCN(C)CC3)c(Cl)c2)c2c(ccc3nc[nH]c32)n1 | – | inactive | – | 100%
CCCCc1ccc(Nc2cc(C)nc3ccc4[nH]cnc4c23)cc1 | – | inactive | – | 100%
CCN(CC)CCOc1ccc(Nc2cc(C)nc3ccc4nc[nH]c4c23)cc1 | – | inactive | – | 100%
Cc1cc(Nc2ccc(Cl)c(Cl)c2)c2c(ccc3nc[nH]c32)n1 | inactive | 65% | – | –
COc1ccc(Nc2cc(C)nc3ccc4nc[nH]c4c23)cc1 | inactive | 64% | – | –
COc1ccc(Nc2cc(C)nc3ccc4nc(-c5ccccc5)[nH]c4c23)cc1 | inactive | 94% | – | –
Cc1cc(Nc2ccccc2-c2ccccc2)c2c(ccc3nc[nH]c32)n1 | – | inactive | – | 100%
Cc1cc(Nc2ccc(Cl)cc2C)c2c(ccc3nc[nH]c32)n1 | inactive | 100% | – | –
CCCC(=O)c1ccc(Nc2cc(C)nc3ccc4nc[nH]c4c23)cc1 | – | inactive | – | 100%

SMILES | Activity (Rodentolepis nana [1]) | Activity (Rodentolepis nana [2]) | Activity (Rodentolepis nana [3]) | Activity (Rodentolepis nana [4])
COc1cc(Cl)ccc1Nc1cc(C)nc2ccc3nc[nH]c3c12 | inactive | 52% | – | –
Cc1ccc(Cl)c(Nc2cc(C)nc3ccc4nc[nH]c4c23)c1 | – | inactive | – | 98%
Cc1cc(Nc2ccc(C)c([N+](=O)[O-])c2)c2c(ccc3nc[nH]c32)n1 | – | inactive | – | 83%
Cc1cc(Nc2ccc(Oc3ccccc3)cc2)c2c(ccc3nc[nH]c32)n1 | 66% | 100% | inactive | –
Cc1cc(Nc2ccc(N3CCN(C)CC3)cc2)c2c(ccc3nc[nH]c32)n1 | – | inactive | – | 80%
CSc1ccccc1Nc1cc(C)nc2ccc3nc[nH]c3c12 | – | inactive | – | 93%
CCOc1ccc(OC)cc1Nc1cc(C)nc2ccc3nc[nH]c3c12 | 76% | 100% | inactive | –
Cc1cc(Nc2ccc(C(C)C)cc2)c2c(ccc3nc[nH]c32)n1 | 53% | 100% | inactive | –
CC(=O)c1cccc(Nc2cc(C)nc3ccc4nc[nH]c4c23)c1 | inactive | 96% | – | –
Cc1cc(Nc2ccc3ccccc3c2)c2c(ccc3nc[nH]c32)n1 | inactive | 72% | – | –
CCOc1ccc(OCC)c(Nc2cc(C)nc3ccc4nc[nH]c4c23)c1 | 100% | 100% | inactive | –
CCC(=O)c1ccc(Nc2cc(C)nc3ccc4nc[nH]c4c23)cc1 | 78% | 75% | inactive | –
COc1cc(Nc2cc(C)nc3ccc4nc[nH]c4c23)cc(OC)c1OC | inactive | 70% | – | –
CCOc1ccc(OC)c(Nc2cc(C)nc3ccc4nc[nH]c4c23)c1 | 89% | 100% | inactive | –
COc1cc(OC)c(Nc2cc(C)nc3ccc4nc[nH]c4c23)cc1Cl | 82% | 85% | inactive | –
Cc1cc(Nc2ccc(Br)cc2)c2c(ccc3nc[nH]c32)n1 | inactive | 61% | – | –
Cc1cc(Nc2ccc(N3CCCCC3)c(Cl)c2)c2c(ccc3nc[nH]c32)n1 | 80% | 100% | inactive | –
Cc1cc(Nc2ccccc2)c2c(ccc3nc[nH]c32)n1 | – | 40% | – | –
COc1ccc(Nc2cccc(Nc3cc(C)nc4ccc5nc[nH]c5c34)c2)cn1 | 94% | 100% | inactive | –
CCC(C)c1ccc(Nc2cc(C)nc3ccc4nc[nH]c4c23)cc1 (configuration not stated) | inactive | 100% | – | –
Cc1cc(Nc2cccc3ccccc23)c2c(ccc3nc[nH]c32)n1 | inactive | 100% | – | –
Cc1cc(Nc2ccc(C)c(Cl)c2)c2c(ccc3nc[nH]c32)n1 | 90% | 94% | inactive | –
Cc1cc(Nc2cccc(Cl)c2C)c2c(ccc3nc[nH]c32)n1 | 94% | 100% | inactive | –
COc1ccc(OC)c(Nc2cc(C)nc3ccc4nc[nH]c4c23)c1 | inactive | 100% | – | –
